Assay results reported in PubChem BioAssay AID1189 (EPA DSSTox, 2008).
Activity calls are given as the source filed them.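 How the source made its calls: active means a tumor-causing dose value with its tumor site reported for any sex and species group of a rodent or other animal cancer study; inconclusive means only studies judged inadequate by the national testing program; inactive means tested in at least one study, none positive.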

Assay: DSSTox (CPDBAS) Carcinogenic Potency Database Summary SingleCellCall Results
Conditions: animal chronic carcinogenicity bioassays, CPDB summary call
Outline: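 Categorical carcinogenicity call compiled from published chronic rodent and other animal cancer bioassays; based on the most positive result across experiments for each sex-species, assigned on minimal evidence for or against activity.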

| Structure (SMILES) | outcome |
| --- | --- |
| CC(O)COC(C)(C)C (centres undefined) | active |
| CCC[C@@H]1O[C@@H]2C[C@H]3[C@@H]4CCC5=CC(=O)C=C[C@]5(C)[C@H]4[C@@H](O)C[C@]3(C)[C@]2(C(=O)CO)O1 | active; inactive |
| Cc1cc(C)c(N=Nc2c(O)c(S(=O)(=O)O)cc3cc(S(=O)(=O)O)ccc23)cc1C | active; inactive |
| CCCCCCCCCCC(C)c1ccc(S(=O)(=O)O)cc1 (centres undefined) | inactive |
| CC(C(=O)O)c1cccc(C(=O)c2ccccc2)c1 (centres undefined) | inactive |
| C=CC1CC=CCC1 (centres undefined) | active |
| CCOP(=O)(CC1CO1)OCC (centres undefined) | inactive |
| Nc1ccc(O)c(N)c1 | active |
| COc1cc(CNC(=O)CCCC/C=C/C(C)C)ccc1O | active |
| O=c1oc2c(O)c(O)cc3c(=O)oc4c(O)c(O)cc1c4c23 | inactive |
| O=NN1CCCCO1 | active |
| O=NN1CCOC1=O | active; inactive |
| CC1=C2C(=CO[C@@H](C)[C@@H]2C)C(=O)C(C(=O)O)=C1O | active |
| O=c1c(O)c(-c2ccc(O)cc2)oc2cc(O)cc(O)c12 | inactive |
| COc1cc(-c2ccc(N)c(OC)c2)ccc1N | active; inactive |
| CCOP(=S)(OCC)SC1OCCOC1SP(=S)(OCC)OCC (centres undefined) | inactive |
| CCC(O)OC(O)CC (centres undefined) | inactive |
| CN1C(=O)OC(C)(C)C1=O | inactive |
| Oc1ccc(O)cc1 | active |
| O=C(O)c1nn(Cc2ccc(Cl)cc2Cl)c2ccccc12 | inactive |
| Cc1cc(Cl)ccc1OCC(=O)O | inactive |
| CCOP(=S)(OCC)Oc1ccc2c(C)c(Cl)c(=O)oc2c1 | inactive |
| CNc1ncnc2c1ncn2[C@@H]1O[C@H](CO)[C@@H](O)[C@H]1O | inactive; active |
| O=NN1CCCCC1 | active; inactive |
| CC/C=C(/CC)[N+](=O)[O-] | active |
| CC(Oc1cc(Cl)c(Cl)cc1Cl)C(=O)O (centres undefined) | inactive |

| Structure (SMILES) | outcome |
| --- | --- |
| CC(=O)OCC(=O)[C@@]12N=C(C)O[C@@H]1C[C@H]1[C@@H]3CCC4=CC(=O)C=C[C@]4(C)[C@H]3[C@@H](O)C[C@@]12C | active |
| NC1CCCCC1 | inactive |
| CC(C)C(C(=O)OC(C#N)c1cccc(Oc2ccccc2)c1)c1ccc(Cl)cc1 (centres undefined) | inactive |
| F | inactive |
| COC(=O)C(c1ccccc1)C1CCCCN1N=O (centres undefined) | inactive |
| Brc1cc(Br)c(-c2c(Br)c(Br)c(Br)c(Br)c2Br)c(Br)c1Br | active; inactive |
| NC(=O)CI | inactive; active |
| O=NN1CCCCC1c1cccnc1 (centres undefined) | active |
| OCl | inactive |
| C=C1C[C@]23C[C@@]1(O)CC[C@H]2[C@@]12C=C[C@H](O)[C@@](C)(C(=O)O1)[C@H]2[C@@H]3C(=O)O | inactive |
| Cc1ccc(C)c(OCCCC(C)(C)C(=O)O)c1 | active; inactive |
| COC1[C@@H](O[C@@H]2O[C@H](C)[C@@H](O[C@H]3C[C@@](C)(O)[C@H](OC(=O)CC(C)C)[C@H](C)O3)[C@H](N(C)C)[C@H]2O)[C@@H](CC=O)C[C@@H](C)[C@@H](O)/C=C/C=C/C[C@@H](C)OC(=O)C[C@H]1OC(C)=O (some centres undefined) | inactive; active |
| OCC(O)CO | inactive |
| Cc1ccc(S(=O)(=O)OCCN(C)N=O)cc1 | active |
| O=c1c(CO)c/c(=N/Nc2ccc(S(=O)(=O)O)c3ccccc23)c(=O)/c1=N/Nc1ccc(S(=O)(=O)O)c2ccccc12 | inactive |
| CC1CN(N=O)CC(C)N1C(=O)c1ccccc1 (centres undefined) | active |
| Cc1c([N+](=O)[O-])c(C)c([N+](=O)[O-])c(C(C)(C)C)c1[N+](=O)[O-] | active |
| Cc1cc(N)ccc1N | inactive |
| CCCCC(CC)COP(=O)(OCC(CC)CCCC)OCC(CC)CCCC (centres undefined) | active |
| C=CC(=O)OCC | active |
| N#[N+]c1cc(CCN)ccc1[O-] | active |
| OCc1ccco1 | active |
| O.O.O.O.O=C([O-])CC(O)(CC(=O)[O-])C(=O)[O-].[Fe+3] | inactive |
| S=C=NCc1ccccc1 | inactive |
| CC(C)(C)c1cc([N+](=O)[O-])cc([N+](=O)[O-])c1OS(C)(=O)=O | inactive |
| Cc1c(-c2cnccn2)ssc1=S | inactive; active |

| Structure (SMILES) | outcome |
| --- | --- |
| CCCOC(=O)C1c2cc3c(cc2CC(C)C1C(=O)OCCC)OCO3 (centres undefined) | inactive |
| O=NN1CCOC(O)C1 (centres undefined) | inactive; active |
| [N-]=[N+]=CC(=O)OC[C@H](N)C(=O)O | active |
| Oc1ccc2ccccc2c1N=Nc1ccccc1 | active |
| CC1=C(/C=C/C(C)=C/C=C/C(C)=C/C=C/C=C(C)/C=C/C=C(C)/C=C/C2=C(C)CCCC2(C)C)C(C)(C)CCC1 | inactive |
| O=P1(NCCCl)OCCCN1CCCl (centres undefined) | active; inactive |
| COS(C)(=O)=O | active; inactive |
| CC(=O)Nc1ccc(O)cc1 | active; inactive |
| CCCCCCOc1cc(C)c(O)c(C)c1C | inactive; active |
| Cc1ncc([N+](=O)[O-])n1CCO | active |
| Oc1ccccc1-c1ccccc1 | active |
| CN(N=O)c1ccc([N+](=O)[O-])cc1 | inactive |
| O=C([O-])C(=O)O.O=C([O-])C(=O)O.[K+].[K+].[O]=[Ti] | inactive; active |
| CCCCC/C=C\C/C=C\CCCCCCCC(=O)OC | inactive |
| CN=C(NC#N)NCCSCc1nc[nH]c1C | inactive; active |
| CCC[CH2][Sn]([CH2]CCC)([O]C(C)=O)[O]C(C)=O | inactive |
| O=C(O)c1ccccc1-c1c2cc(I)c(=O)c(I)c-2oc2c(I)c(O)c(I)cc12 | inactive |
| CCC[N+](=O)[O-] | inactive |
| Cl[C@H]1OCCO[C@@H]1Cl | inactive |
| CC(O)CN(C)N=O (centres undefined) | active |
| CCCN(CCC)N=O | active |
| COc1cc(/C=C/C(=O)OCCc2ccccc2)ccc1O | inactive; active |
| Oc1cccc(O)c1 | inactive |
| NCCS(=O)(=O)O | inactive; active |
| Nc1ccc(Oc2ccc(Cl)cc2)cc1 | active |
| O=C1CC(=O)NC(=O)N1 | inactive |

| Structure (SMILES) | outcome |
| --- | --- |
| CC1(C)[C@H](C(=O)O[C@H](C#N)c2cccc(Oc3ccccc3)c2)[C@@H]1C=C(Br)Br | inactive |
| Oc1ccc(OCc2ccccc2)cc1 | inactive; active |
| NNc1nc(-c2ccc([N+](=O)[O-])o2)cs1 | active; inactive |
| NC(N)=Nc1nc(CSCCNc2nsnc2N)cs1 | active |
| CN1C2CC[C@@H]1CC(NC(=O)c1cc(Cl)cc3c1OC(C)(C)C3)C2 (some centres undefined) | inactive |
| C=CCN(N)CC=C | active |
| C=Cc1ccc(C)cc1 | inactive |
| C=CCN(CC=C)N=O | active |
| CN(C)CCOC(C)(c1ccccc1)c1ccccn1 (centres undefined) | active; inactive |
| Nc1cc(Cl)c(-c2cc(Cl)c(N)cc2Cl)cc1Cl | inactive |
| CCc1ccc(C(c2ccc(CC)cc2)C(Cl)Cl)cc1 | inactive |
| ClCCOCCCl | active |
| [Se] | inactive |
| CN(C)C(=S)[S-].CN(C)C(=S)[S-].[Cu+2] | inactive |
| Cc1cc(OC(=O)N(C)C)n(C(C)C)n1 | inactive; active |
| OC[C@@H](O)[C@@H](O)[C@H](O)[C@H](O)CO[C@H]1O[C@H](CO)[C@@H](O)[C@H](O)[C@H]1O | inactive |
| CCCCC(CC)COC(=O)CCCCC(=O)OCC(CC)CCCC (centres undefined) | active |
| CCCCC(CC)COC(=O)COc1ccc(Cl)cc1Cl (centres undefined) | inactive |
| C/C=N/O | inactive |
| CC(C)=CCC/C(C)=C/C=O | inactive |
| O=C1NCCN1 | inactive |
| Nc1ccc(NCCO)c([N+](=O)[O-])c1 | inactive |
| Nc1nc(-c2ccc([N+](=O)[O-])o2)cs1 | active |
| COc1ccc([N+](=O)[O-])cc1N | active |
| CCN(C#N)N=O | active |
| O=NN1CCCC1c1cccnc1 (centres undefined) | active |

| Structure (SMILES) | outcome |
| --- | --- |
| O=[N+]([O-])c1cccc2ccccc12 | inactive |
| Cc1[nH]cnc1CSCCN=C(NC#N)N(C)N=O | inactive; active |
| CC1CN(N=O)C(=O)O1 (centres undefined) | active |
| Cc1ccc(/C(=C\CN2CCCC2)c2ccccn2)cc1 | inactive |
| COc1cccc(O)c1O | active |
| CCCCCC(N)=O | active |
| O=C1OC(O)C(C(Cl)Cl)=C1Cl (centres undefined) | active |
| N[C@@H](Cc1ccc(N(CCCl)CCCl)cc1)C(=O)O | active |
| C=CC(N)=O | active; inactive |
| Nc1ccc(O)c([N+](=O)[O-])c1 | active |
| CCO | active |
| CC(=O)CN(CC(O)CO)N=O (centres undefined) | active |
| CCOC(N)=O | active; inactive |
| CCOc1ccc(NC(=O)CC(C)O)cc1 (centres undefined) | active |
| O=CNNc1nc(-c2ccco2)cs1 | inactive |
| CC(C)(C)NC(=O)[C@H]1CC[C@H]2[C@@H]3CC[C@H]4NC(=O)C=C[C@]4(C)[C@H]3CC[C@]12C | active; inactive |
| Nc1ccc(N)cc1 | inactive |
| Nc1nc(N)nc(-c2ccc([N+](=O)[O-])o2)n1 | active |
| c1ccc(C2CO2)cc1 (centres undefined) | active |
| CC(C)[N+](=O)[O-] | inactive; active |
| Cc1ncc([N+](=O)[O-])n1C | active |
| Nc1ncc([N+](=O)[O-])s1 | active |
| CCCCCl | inactive |
| CCc1ccccc1 | active |
| CC[C@]1(O)CC2CN(CCc3c([nH]c4ccccc34)[C@@](C(=O)OC)(c3cc4c(cc3OC)N(C)[C@H]3[C@@](O)(C(=O)OC)[C@H](OC(C)=O)[C@]5(CC)C=CCN6CC[C@]43[C@@H]65)C2)C1 (some centres undefined) | inactive |
